In the supplement of paper PMC11061612:

Legend:
IM-9 (Non-Cancerous) = assay: combination Emax (second highest fraction inhibited in the dose matrix, 72 h); higher = more inhibition; extreme values may be limits of the assay
How it was run: (§1)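 Cell lines in DMEM/F12 or RPMI with 10% FBS were plated in 1536-well plates, held 24 hours at 37°C, 5% CO2, then given two-drug dose matrices for 72 hours (DMSO typically 0.2%). Viability was read by CellTiter-Glo 2.0 luminescence and scaled as inhibition from 0 (vehicle wells) to 1 (blank wells). Combination Emax is the second-highest inhibition in the matrix; Bliss excess is observed combination effect minus expected EA + EB − EA·EB, EA and EB being single-agent effects.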

WM1552C (Melanoma) = assay: as above
How it was run: as §1

[1] = test system: DMS-53 (Small Cell Lung Carcinoma); assay: as above
How it was run: as §1

[2] = test system: A253 (Head and Neck Carcinoma); assay: as above
How it was run: as §1

[3] = test system: JHU-022 (Oral Cavity Carcinoma); assay: as above
How it was run: as §1

[4] = test system: NCI-H1651 (Lung Adenocarcinoma); assay: Bliss excess, mean over the matrix (fraction); higher = more synergy
How it was run: as §1

PEO1 (Ovarian Carcinoma) = assay: as above
How it was run: as §1

[5] = test system: UACC-812 (Breast Carcinoma); assay: as above
How it was run: as §1

[6] = test system: NCI-H441 (Lung Adenocarcinoma); assay: as above
How it was run: as §1

KP-N-YN (Neuroblastoma) = assay: as above
How it was run: as §1

[7] = test system: MHH-ES-1 (Ewing's Sarcoma); assay: as above
How it was run: as §1

EW-7 (Ewing's Sarcoma) = assay: as above
How it was run: as §1

[8] = test system: CAL-27 (Oral Cavity Carcinoma); assay: as above
How it was run: as §1

[9] = test system: KYSE-220 (Esophageal Squamous Cell Carcinoma); assay: as above
How it was run: as §1

[10] = test system: JHH-2 (Hepatocellular Carcinoma); assay: as above
How it was run: as §1

[11] = test system: CESS (Acute Myeloid Leukemia); assay: as above
How it was run: as §1

[12] = test system: ESO26 (Esophageal Adenocarcinoma); assay: as above
How it was run: as §1

[13] = test system: A253 (Head and Neck Carcinoma); assay: as above
How it was run: as §1

769-P (Kidney Carcinoma) = assay: as above
How it was run: as §1

[14] = test system: G-402 (Other Solid Carcinomas); assay: as above
How it was run: as §1
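Throughout, for Bliss excess, mean over the matrix: after 72 h of two-drug dosing.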

Row | Compound | combination Emax (IM-9 (Non-Cancerous)) | combination Emax (WM1552C (Melanoma)) | combination Emax [1] | combination Emax [2] | combination Emax [3] | Bliss excess [4] | Bliss excess (PEO1 (Ovarian Carcinoma)) | Bliss excess [5] | Bliss excess [6] | Bliss excess (KP-N-YN (Neuroblastoma)) | Bliss excess [7] | Bliss excess (EW-7 (Ewing's Sarcoma)) | Bliss excess [8] | Bliss excess [9] | Bliss excess [10] | Bliss excess [11] | Bliss excess [12] | Bliss excess [13] | Bliss excess (769-P (Kidney Carcinoma)) | Bliss excess [14]
1 | CN(C)CCCOc1ccc(-c2ccc3ncc4c(c3c2)n(C2CCOCC2)c(=O)n4C)cn1 [AZD0156] + C=CCn1c(=O)c2cnc(Nc3ccc(N4CCN(C)CC4)cc3)nc2n1-c1cccc(C(C)(C)O)n1 [AZD1775] (first compound max 1 µM, partner max 1 µM) | 0.986 | 0.476 | 0.148 | 0.327 | 0.36 | -0.0046 | -0.0442 | -0.0561 | -0.0963 | -0.0161 | -0.0402 | 0.039 | -0.0539 | -0.0432 | -0.0233 | -0.0059 | -0.0322 | -0.0389 | -0.0025 | -0.0501
2 | CN(C)CCCOc1ccc(-c2ccc3ncc4c(c3c2)n(C2CCOCC2)c(=O)n4C)cn1 [AZD0156] + CCN(CCO)CCCOc1ccc2c(Nc3cc(CC(=O)Nc4cccc(F)c4)[nH]n3)ncnc2c1 [AZD2811] (first compound max 1 µM, 7x7, partner max 1 µM) | 0.944 | 0.242 | 0.0911 | 0.212 | 0.193 | -0.0167 | -0.0421 | -0.0171 | -0.0776 | 0.0037 | 0.0376 | 0.0718 | -0.0054 | -0.0095 | -0.031 | 0.0178 | -0.037 | -0.0119 | -0.0343 | -0.0111
3 | CN(C)CCCOc1ccc(-c2ccc3ncc4c(c3c2)n(C2CCOCC2)c(=O)n4C)cn1 [AZD0156] + C[C@@H]1COCCN1C2=NC(=NC(=C2)C3(CC3)[S@](=N)(=O)C)C4=C5C=CNC5=NC=C4 [AZD6738] (first compound max 1 µM, 7x7, partner max 10 µM) | 0.976 | 0.783 | 0.134 | 0.794 | 0.525 | -0.0468 | -0.0327 | -0.0108 | -0.0718 | 0.0249 | 0.0361 | 0.0318 | 0.0433 | 0.0134 | -0.0249 | 0.0386 | 0.0158 | 0.0145 | 0.0253 | -0.0306
4 | CN(C)CCCOc1ccc(-c2ccc3ncc4c(c3c2)n(C2CCOCC2)c(=O)n4C)cn1 [AZD0156] + O=C(c1cc(Cc2n[nH]c(=O)c3ccccc23)ccc1F)N1CCN(C(=O)C2CC2)CC1 [Olaparib] (first compound max 3 µM, partner max 3 µM) | 0.656 | 0.324 | 0.255 | 0.186 | 0.62 | 0.132 | -0.0891 | -0.113 | -0.0003 | – | 0.148 | 0.119 | 0.0602 | 0.191 | 0.0203 | 0.075 | -0.0039 | 0.0536 | -0.0148 | 0.0571
5 | C=CCn1c(=O)c2cnc(Nc3ccc(N4CCN(C)CC4)cc3)nc2n1-c1cccc(C(C)(C)O)n1 [AZD1775] + C1CN(CCC1(C(=O)N[C@@H](CCO)C2=CC=C(C=C2)Cl)N)C3=NC=NC4=C3C=CN4 [Capivasertib] (first compound max 3 µM, partner max 3 µM) | 1 | 0.719 | 0.619 | 0.848 | 0.71 | -0.0367 | -0.0697 | -0.0007 | -0.0427 | – | -0.034 | 0.0149 | -0.0197 | -0.0206 | -0.122 | -0.0359 | -0.0424 | 0.0248 | -0.0475 | -0.0346
6 | C=CCn1c(=O)c2cnc(Nc3ccc(N4CCN(C)CC4)cc3)nc2n1-c1cccc(C(C)(C)O)n1 [AZD1775] + C[C@@H]1COCCN1C2=NC(=NC(=C2)C3(CC3)[S@](=N)(=O)C)C4=C5C=CNC5=NC=C4 [AZD6738] (first compound max 1 µM, partner max 10 µM) | 0.999 | 0.805 | 0.221 | 0.863 | 0.601 | -0.0105 | -0.0234 | 0.0176 | -0.0834 | -0.005 | -0.0135 | -0.0435 | 0.0428 | 0.0242 | -0.0817 | 0.0388 | 0.0102 | 0.0764 | 0.0092 | -0.0458
7 | C=CCn1c(=O)c2cnc(Nc3ccc(N4CCN(C)CC4)cc3)nc2n1-c1cccc(C(C)(C)O)n1 [AZD1775] + O=C(c1cc(Cc2n[nH]c(=O)c3ccccc23)ccc1F)N1CCN(C(=O)C2CC2)CC1 [Olaparib] (first compound max 1 µM, partner max 10 µM) | 0.986 | 0.486 | 0.148 | 0.35 | 0.432 | -0.0869 | -0.013 | -0.023 | -0.0662 | -0.144 | -0.0196 | -0.0704 | -0.0431 | -0.0428 | -0.0609 | -0.0054 | -0.0518 | 0.0364 | -0.0578 | -0.0761
